According to patent publication US9675596B2, “1,2,4-thiazolidin-3-one derivatives and their use in the treatment of cancer” (Baltic Bio AB, priority 2009, dated 2017):

Key:
[1] = system: PC-3 cells; assay: Cell proliferation assay (BrdU incorporation); format: cell-based; settings: Homo sapiens, serum-free, 0.6 μM, relative to vehicle control (1 unit), 18 h + 6 h BrdU, read-out: Units of BrdU incorporation
Procedure: PC-3 cancer cell lines were propagated in D-MEM (Gibco 21885) supplemented with 10% Foetal calf serum. 15000 cells per well were seeded in 96 well plates and incubated overnight. The culture media was changed to serum-free D-MEM for 24 h. The culture media was then changed to serum free D-MEM containing either 0.2% DMSO as vehicle control or 0.3, 0.6, 1.2 or 2.5 μM (or 1.25, 2.5, 5, 10 μM (as indicated in Table 1 below)) of the selected compounds of Example 1 to Example 8 in 0.2% DMSO in quadruplicate. After 18 h incubation, BrdU was added according to manufacturer's recommendations. After 6 h incubation in the presence of BrdU, the culture media was removed and BrdU incorporation was measured using “Cell Proliferation ELISA, BrdU colorimetric” Roche (11647229001) according to manufacturer's recommendations.
Proliferation rate of PC-3 cells are reduced by relevant concentrations of the test compounds as measured by BrdU incorporation.

[2] = system: AMPK; assay: Activation of AMPK: Western blot of AMPK (Thr172) phosphorylation in PC3 cells; format: cell-based, human; settings: PC3 cells starved 24 h serum-free; 0.3, 0.6, 1.2 and 2.5 μM for 4 h
Procedure: After starvation of PC3 cells in serum-free medium for 24 h, 0.3, 0.6, 1.2 and 2.5 μM of the compound of Example 1 or the compound of Example 2c was added and incubated for an additional 4 h. The Figure provides representative immunoblots of AMPK phosphorylation by the compound of Example 1 or the compound of Example 2c.
After starvation of PC3 cells in serum-free medium for 16 h, 1 and 5 μM of the selected compounds were added and incubated for an additional 4 h. The Figure provides representative immunoblots of the total level of AMPK (Pan-AMPK) and the level of AMPK and acetyl-CoA carboxylase phosphorylation by the selected compounds of the examples. The selected compounds of the examples stimulate AMPK phosphorylation in PC3 cells and induce the phosphorylation of acetyl-CoA carboxylase.
Selected compounds of Examples 1, 4 to 6 and 8 were prepared. A stock solution of […] was prepared by dissolving the compound in 100% DMSO.
Human PC3 cells were purchased from LGC Promochem-ATCC (ATCC catalog no CRL-1435). […]
PC3 cells were lysed in buffer (100 mM TRIS pH 6.8, 2% w/v Sodium dodecylsulfate (SDS), 10 mM NaF, 10 mM 3-glycerophosphate, 1 mM Na Vanadate). […] Protein concentrations of the lysates were measured using a BCA protein assay kit (Pierce #23225). […]

[3] = biological target: T1, PP2C-α1 (Homo sapiens, UniProt P35813); assay: Dephosphorylation of PP2C assay (PP2C-α1 mediated dephosphorylation of AMPK trimer); format: biochemical; settings: 2.5, 5 and 10 μM; AMPK trimer α1/β1/γ1, 20 min, 30° C.
T1 construct: purchased Abcam (PP2C-α1); Invitrogen (AMPK trimer) Ab51205; PV4672
T1 sequence (P35813 1-382): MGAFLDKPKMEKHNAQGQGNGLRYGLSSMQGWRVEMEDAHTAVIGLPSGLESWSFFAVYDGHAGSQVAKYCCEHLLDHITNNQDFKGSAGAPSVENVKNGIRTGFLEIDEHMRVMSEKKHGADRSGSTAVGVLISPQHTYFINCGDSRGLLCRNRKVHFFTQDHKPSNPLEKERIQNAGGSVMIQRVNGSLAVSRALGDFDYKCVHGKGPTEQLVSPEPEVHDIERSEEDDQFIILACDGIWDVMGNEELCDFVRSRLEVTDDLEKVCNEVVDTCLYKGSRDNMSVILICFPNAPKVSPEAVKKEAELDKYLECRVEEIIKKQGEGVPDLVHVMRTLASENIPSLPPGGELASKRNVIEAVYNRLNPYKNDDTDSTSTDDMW
Procedure: The compounds were tested in the assay at concentrations of 2.5, 5 and 10 μM (as depicted in the figure).
Hyperphosphosporylated AMPK trimer 10 (ng) (α1/β1/γ1) from Invitrogen (PV4672) was incubated in a buffer containing: 40 mM Hepes pH 7.45, 2 mM MnCl2, 0.5 mM DTT and 0.125 ng recombinant PP2C-α1 (Abcam Ab51205) in the presence or absence of potential inhibitors of the interaction/enzymatic reaction in at total volume of 10 μL for 20 minutes in 30° C. The reaction was terminated by addition of 40 μL stop solution containing 1% Bovine Serum Albumin (BSA), 10 mM EDTA and anti Phospho-AMPKα (Thr172) Antibody (cell signaling #2531) at a dilution of 1/1000. The samples were transferred to glutathione coated 96 well plated (Pierce #15140) and incubated O/N at +4° C. The plate was washed 3×200 μL in PBS/0.05% Triton X-100. The plate was incubated with PBS/1% BSA and horse radish peroxidase conjugated goat-anti rabbit antibody (Jackson immunoresearch Laboratories Inc. #111-035-003) at a dilution of 1/10 000 for 2 h in room temperature. The plate was washed 3×200 μL in PBS/0.05% Triton X-100. The assay was developed by addition of 100 μL Liquid Substrate System for ELISA (Sigma, T0440) for 5-30 min. The developing reaction was terminated by addition of 25 μL […]. Absorbance was measured at 450 nm, where absorbance correlates to amount p-T172 AMPK.

SMILES | activity at 0.6 µM [1] | AMPK phosphorylation (immunoblot, FIG. 1) [2] | PP2C-α1 mediated dephosphorylation of AMPK (FIG. 3) [3]
O=c1[nH]s/c(=N\c2ccc(Cl)c(Cl)c2)n1Cc1ccc(F)c(F)c1 [Example 2c, 5-(3,4-dichlorophenyl)imino-4-[(3,4-difluorophenyl)methyl]-1,2,4-thiadiazolidin-3-one] | 34% | stimulates AMPK phosphorylation | reduce PP2C-α1 mediated dephosphorylation of AMPK
O=c1[nH]s/c(=N\c2ccc(Cl)c(Cl)c2)n1Cc1cccc(C(F)(F)F)c1 [Example 1, 5-(3,4-dichlorophenyl)imino-4-[[3-(trifluoromethyl)phenyl]methyl]-1,2,4-thiadiazolidin-3-one] | 39% | stimulates AMPK phosphorylation | reduce PP2C-α1 mediated dephosphorylation of AMPK
